Assays:
S. aureus = test: Food contact sanitizing efficacy (AOAC Method 960.09); assay type: cell-based; conditions: pH adjusted to 2.1 with phosphoric acid, 30 seconds exposure
Description: (§1) Additional testing to confirm food contact sanitizing efficacy (AOAC Method 960.09) comparing three AEC surfactants was conducted where the surfactants were diluted in 500 ppm synthetic hard water and pH adjusted to 2.1 with phosphoric acid. The evaluated AEC surfactants are further described above in Table 2.

E. coli = test: as above; assay type: cell-based; conditions: pH adjusted to 2.1 with phosphoric acid, 30 seconds exposure
Description: as §1

[1] = 500 ppm surfactant in 500 ppm synthetic hard water
[2] = 750 ppm surfactant in 500 ppm synthetic hard water
[3] = 1000 ppm surfactant in 500 ppm synthetic hard water

Row | Substance | Log reduction S. aureus (S. aureus; [1]) [log] | Log reduction S. aureus (S. aureus; [2]) [log] | Log reduction S. aureus (S. aureus; [3]) [log] | Log reduction E. coli (E. coli; [1]) [log] | Log reduction E. coli (E. coli; [2]) [log] | Log reduction E. coli (E. coli; [3]) [log]
1 | Capryleth-4 Carboxylic acid | >7.34 | >7.34 | >7.34 | >7.59 | >7.59 | >7.59
2 | Capryleth-6 Carboxylic acid | >7.34 | >7.34 | >7.34 | 1.98 | 3.44 | >7.59
3 | Capryleth-9 Carboxylic acid | 5.31 | >7.34 | >7.34 | <1.19 | <1.19 | <1.19

From patent US20240349720A1, “ANTIMICROBIAL COMPOSITIONS COMPRISING ALKYL ETHER CARBOXYLIC ACIDS AND METHODS OF USE THEREOF” (ECOLAB USA INC., priority 2023, published 2024)
